row,SMILES,melting point
1,Cc1c(C)c2c(c(C)c1N)C(=O)C(C)(C)O2,92 to 93 °C
2,CC(=O)OCc1c(C(=O)C(=O)O)c2cc(-c3cccc(C)c3)ccc2n1Cc1ccc(C(C)(C)C)cc1,91 to 92 °C
3,COc1cc(-c2nc(NCC(C)C)c3c(C)c(C#N)sc3n2)cc(OC)c1OC,182 to 184 °C
4,CN(C)S(=O)(=O)c1cccc(NC(=O)c2cnn3c(C(F)(F)F)cc(-c4ccc(C(F)(F)F)cc4)nc23)c1,210 °C
5,CS(=O)(=O)c1ccc(NC(=O)c2ccccc2SSc2ccccc2C(=O)Nc2ccc(S(C)(=O)=O)cc2)cc1,236 to 238 °C
6,CC1(C)C(=O)N(CCCN(CCCN2C(=O)c3ccccc3C(C)(C)C2=O)Cc2ccccc2)C(=O)c2ccccc21,108 °C
7,COc1c(N2CC(N)C2)c(F)cc2c(=O)c(C(=O)O)cn(-c3cc(N)c(F)cc3F)c12,> 290 °C
8,O=S1(=O)NCN(C2CC2)c2c(Cl)cccc21,142 to 143 °C
9,CC(=O)NC1CCN(CCC2CCOc3ccccc32)CC1 (configuration not stated),126 to 128 °C
10,Cn1cc(Br)cc([N+](=O)[O-])c1=O,122 to 123 °C
11,CCOC(=O)C(=CO)CCN1CCC(C2(c3ccc(F)cc3)OCCO2)CC1,117 °C
12,Cc1cc(-c2ccc(S(N)(=O)=O)cc2)n(-c2ccc(Cl)cc2)c1,171 to 173 °C
13,C=CCc1cc(NC(C)=O)ccc1OCC1(O)CN2CCC1CC2 (configuration not stated),170 to 172 °C
14,"C=CCN1CCc2cc(OC)c(O)c3c2C1Cc1cc(OC)c(OC)cc1-3 (single isomer, unassigned; (+))",85 to 93 °C
15,Cc1cccc(OC(C)(C)C(=O)NCCc2ccc(OC(C)(C)C(=O)O)cc2)c1,85 to 88 °C
16,O=[N+]([O-])c1ccc(-n2nnnc2Cl)cc1,96.5 °C
17,CC(C)(C)NC(=S)Nc1cccc(SCCCC#N)n1,156 to 157 °C
18,COc1ccc(C2(C#Cc3cccc(C(=O)O)c3)CCCC(=O)C2)cc1OC1CCCC1 (configuration not stated),71 to 73 °C
19,Cc1ccc(S(=O)(=O)NC(=O)NCCCCCCNC(=O)NS(=O)(=O)c2ccc(C)o2)o1,115 to 116 °C
20,O=C1CCC(c2ccc([N+](=O)[O-])cc2)CC1,160 to 162 °C
21,COc1ccc(C2=CCN(Cc3n[nH]c4ccccc34)CC2)cc1,157 to 159 °C

row,SMILES,melting point
1,Cc1nn(C)c2nc(N)[nH]c(=O)c2c1=O,> 300 °C
2,CCC1CCN(C(=O)C(Cc2c[nH]cn2)NC(=O)C2CCC(=O)N2)C1C(N)=O (racemic),156 to 160 °C
3,CC(C)c1cccc(C(C)C)c1NC(=S)C1c2ccccc2COc2ccc(Br)cc21 (configuration not stated),190 to 191 °C
4,CC(C(=O)Nc1ccc(C(=O)O)cc1)c1ccc2c(c1)C(C)(C)CCC2(C)C (configuration not stated),195 to 196 °C
5,COc1ccc(C(=O)C(Br)CC2CCCCC2)c(OC)c1 (configuration not stated),83 to 89 °C
6,CC(C)N1CCC(Oc2ccc3[nH]ncc3c2)CC1,125 to 126 °C
7,CNCC[C@H](O)c1cccs1,68 to 70 °C
8,O=c1c2c(O)c(O)ccc2c2cc(O)c(O)cc2n1Cc1ccc([N+](=O)[O-])cc1,258 to 263 °C
9,ClCCN(CCCl)CCOc1cccc2c(Cl)c3ccccc3nc12,105 to 106 °C
10,O=C(N[C@H]1CC[C@H](CCN2CCC(c3cccc4c3CCO4)CC2)CC1)C(F)(F)F,173 °C
11,CCOP(=O)(CC=CC(=O)O)OCC,73 to 75 °C
12,COc1cc(NC(=O)C(F)(F)F)cc(OC)c1C(C)=O,172 to 173 °C
13,CCC1C=C2NC(=O)CC[C@]2(C)[C@H]2CC[C@]3(C)[C@@H]([C@H](C)CCCC(C)C)CC[C@H]3[C@H]12 (some centres not stated),147 to 149 °C
14,COCCOC(=O)C1CCCCC1C(=O)Nc1cc(OC(C)C)c(Cl)cc1F (configuration not stated),58 to 60 °C
15,CC(C)CC(NC1OC(=O)C2C3C=CC(C3)C12)C(=O)OCc1ccccc1 (configuration not stated),88 °C
16,CC(C)(C)OC(=O)N1CCN(C(=O)OC(C)(C)C)C(C(O)(Cc2ccccc2)Cc2ccccc2)C1 (configuration not stated),150 °C
17,O=C(O)CCCCCCCCc1ccco1,31 to 32 °C
18,CSc1nnc(C2(C)CC2)c(=O)n1N,115 to 116 °C
19,CC(C)COC(=O)C(C#N)=CNCCc1ccco1,42 to 44 °C
20,CCCCCCCCCCCCCCCCS(=O)(=O)Nc1cccc(C(C)=O)c1,95.5 to 100 °C
21,CCCc1c(Br)sc2[nH]c(=O)c(=O)[nH]c12,269 to 271 °C

# The next lines start with the values.
row,melting point,SMILES
1,170 to 171 °C,O=C(NC1CC1)c1cn2c(NCCCCCCNS(=O)(=O)c3ccccc3[N+](=O)[O-])nsc2n1
2,60 to 85 °C,CN(Cc1ccccc1)c1c(-c2ccc(S(C)(=O)=O)cc2)cnn(-c2cccc(Cl)c2)c1=O
3,132 to 134 °C,COC(=O)N1CCC(c2n[nH]c3cc(Cl)ccc23)CC1
4,146 to 148 °C,CCOC(=O)c1cc(CC)sc1Nc1ccc([N+](=O)[O-])cc1[N+](=O)[O-]
5,122 to 124 °C,CC(C)(c1ccccc1)c1cccc(S(=O)(=O)NC(CCCNC(=N)N)C(=O)O)c1 (configuration not stated)
6,89 to 91 °C,O=C(O)C(F)Oc1ccc(Cl)cc1Cl (configuration not stated)
7,268 °C,O=c1[nH]c2cc(Cl)ccc2c(NS(=O)(=O)c2ccccc2)c1-c1ccccc1
8,103 to 104 °C,COCCNC(=O)c1cc(F)cc(-c2cccc3cc(Cc4cccc(C(F)(F)F)c4)sc23)c1
9,195 to 196 °C,COc1cc(Cn2cnc3c(-c4ccco4)ncnc32)cc(OC)c1OC
10,75.5 to 77.5 °C,CCc1ccc(-c2nc(-c3ccccc3Cl)nn2C)c(Cl)c1
11,193 to 194 °C,CC(C)(C)C(O)C(Oc1ccc(Cl)cc1)n1ncnc1S (configuration not stated)
12,73 to 75 °C,COc1cc(C)ccc1OC(=O)c1ccccc1
13,159 to 160 °C,CCCCOCCOc1ccc(-c2ccc(N3CCC(C)CC3)c(C=CC(=O)O)c2)cc1
14,30 to 32 °C,CC(=O)C(=[N+]=[N-])C(=O)CCc1ccccc1
15,209 to 211 °C,Cc1cc2c(c3ccc(=O)[nH]c13)OC(CCCl)C2 (configuration not stated)
16,216 to 218 °C,CN(Cc1cccc2c1CN(C1CCC(=O)NC1=O)C2=O)C(=O)Nc1ccc2ccccc2c1 (configuration not stated)
17,193 °C,Cc1nc2cc(C(c3ccccc3)n3ccnc3)ccc2n(N)c1=O (configuration not stated)
18,88 to 93 °C,CCOC(=O)C(C#N)=C(SC)N1CCc2ccccc2CC1
19,116 °C,CCCOc1ccccc1-c1nc(O)cc(Cl)n1
20,110 to 111 °C,CCNC(=O)n1ncc2ccc(OC(C)=O)c(CC3CO3)c21 (configuration not stated)
21,> 250 °C,CCc1ccc(Nc2nc3cc(NC(=O)c4ccc(CC)cc4)ccc3o2)cc1
22,130 °C,CCCCc1nc2ccn(Cc3ccccc3)c(=O)c2n1Cc1ccc(-c2ccccc2-c2nnn[nH]2)cc1
23,233 to 237 °C,COc1cc(Nc2c(C#N)cnc3ccc(-c4csc(C=O)c4)cc23)c(Cl)cc1Cl
24,116 to 117 °C,O=S(=O)(Nc1cccc(CCOCc2csc(-c3ccc(C(F)(F)F)cn3)n2)c1)C(F)(F)F
25,61 to 63 °C,CCOC(=O)c1ccc(F)cn1
26,162 to 166 °C,CC(Oc1ccc(Cl)cc1)c1nnc(N)s1 (configuration not stated)
27,205 to 206 °C,CCOC(=O)c1nc(NC(C)=O)sc1Cc1ccc(SC)cc1
28,167 to 168 °C,COc1nc(N2CCOCC2)cnc1NS(=O)(=O)c1cccc(Cl)c1Cl

row,melting point,SMILES
1,85 to 95 °C,CCCCCNC(=O)C(C)Cc1ccc2c(c1)c(Cc1ccc(C(=O)O)cc1OC)cn2C (configuration not stated)
2,96 to 98 °C,CCC(=O)c1cc2c(Cl)cccc2s1
3,101 °C,CCCc1cc(C(O)(CC)CC)ccc1-c1cc(OCc2ccc(CO)c(CO)c2)ccc1CC
4,64 to 65 °C,CS(=O)(=O)c1ccc(-n2cc(COCc3ccccc3)nc2-c2ccc(Cl)cc2)cc1
5,78 to 79 °C,CCOC(=O)CCCC1Sc2ccccc2NC1=O (configuration not stated)
6,231 to 235 °C,NNc1ncc(-c2ccc(F)cc2)nn1
7,74 to 75 °C,CC(=NO)C(C)(C)NOCCNC(C)(C)C(CCN1C(=O)c2ccccc2C1=O)=NO
8,79.9 to 80.5 °C,CSCc1c(Cl)ccc(C(=O)c2cnoc2C2CC2)c1SC
9,135 to 136 °C,CC(C)(C)Oc1cccc(C(=O)Nc2ccc(OCCN3CCOCC3)c3ccccc23)c1
10,132 to 133 °C,CC(C)(C)OC(=O)N1CCc2c(n(CCOc3ccccc3)c3c(Cl)ccc(Cl)c23)CC1
11,96 °C,CCC[C@H]1CC[C@H](C(=O)Oc2ccc(-c3ccc(F)cc3)cc2)CC1
12,156 to 157 °C,CCN1CCc2ccc(C(=O)CCC(=O)N3CCC(c4ccc(Cl)cc4)CC3)cc2CC1
13,177 to 179 °C,CCCCOC(=O)COc1ccc(C(=O)Nc2cc(F)ccc2Sc2ccccc2-c2nnn[nH]2)cc1
14,216 to 218 °C,Cc1nc2cccc(OCC(C)(C)C(=O)NC(C)C)c2c(N)c1C(=O)O
15,253 to 254 °C,O=C(O)Cc1c(C(=O)c2ncc[nH]2)[nH]c2ccc(Cl)cc12
16,114 to 115 °C,O=C(CCN1CCCC1)Nc1cc(-c2nnc(SCc3cccc(F)c3)o2)ccn1
17,278 to 280 °C,CCOC(=O)c1cc2cc(C3=C(c4cnc5[nH]cc(C(=O)C(C)(C)C)c5n4)CCC3)ccc2[nH]1
18,242 to 245 °C,COc1ccccc1NC(=O)Nc1cccc(-n2c(=O)c(CCC(=O)N(C)C)nc3cccnc32)c1
19,184 to 185 °C,Cc1ccccc1CC(C(=O)Nc1nc2cc(Cl)ccc2o1)c1ccc(S(C)(=O)=O)cc1 (configuration not stated)
20,200 to 203 °C,CC(=O)c1cc(-c2c(Cl)ccc(C(=O)O)c2Cl)n(C)n1
21,> 250 °C,CCCCCCc1cc(-c2nc(-c3cc(CCCCCC)c(O)cc3O)nc(-c3cc(CCCCCC)c(O)cc3O)n2)c(O)cc1O
22,190 to 192 °C,Cc1c(Cl)sc2c1c(-c1ccccc1)nc(=O)n2C
23,77 to 78 °C,CC(C)c1c(Cl)nc(OCc2ccccc2)nc1OCc1ccccc1
24,58 to 59 °C,O=C(NCCCCCC1CCSS1)c1ccccc1 (configuration not stated)
25,136 to 137 °C,CNS(=O)(=O)c1ccc(C2=C(c3ccccc3)C(=O)C(C)(C)O2)cc1Cl
26,> 260 °C,N#Cc1cnc2sc(C#Cc3ccccn3)cc2c1Nc1ccc2[nH]ccc2c1
27,82 to 83 °C,COc1ccc(-c2cc(Cl)on2)cc1
